In PMC12120022, “Discovery and chemical optimisation of a potent, Bi-cyclic antimicrobial inhibitor of Escherichia coli PBP3” (Communications Biology, 2025):
Where a SMILES comes first, the peptide text is derived from it.

Target: T1, EcPBP3 (Escherichia coli, UniProt P0AD68)
T1 construct: For assays, selections and SPR a construct with residues 60–588 which has the N-terminal domain, but not the transmembrane helix, was used; made in house
Experiment: Fluorescence polarisation competition assay with BOCILLIN-FL as tracer
Type: binding
Settings: competition format, NB, non-binder (100 μM top concentration); for IC50: read-out: IC50 (nM) by fluorescence polarisation with Bocillin FL as tracer, Geometric mean (Lower 95% CI of geo. Mean; Upper 95% CI of geo. Mean, n=number of values)
Method: Binding of output peptides to EcPBP3 was evaluated using a fluorescence polarisation (FP) assay.
[…] 10 µL of protein (9.4 nM) was mixed with either 5 µL of peptide or 5 µL of buffer and then the assay was initiated by the addition of 10 µL of tracer (1 nM) (final volume 25 µL), in a black 384 low bind, low volume plate (Corning). The buffer was 10 mM HEPES (Sigma), 2% (v/v) glycerol (Sigma), 300 mM NaCl (Sigma), adjusted to pH 8. The plate was incubated for 1 h at 25 °C and then read in a PHERAstar FS (BMG) using with an “FP 485 520 520” optic module (excitation 485 nm, emission 520 nm). The gain was determined immediately prior to the read on a tracer-only well.
Dotmatics (Dotmatics) workflows performing the above calculations were used to process the data. Values quoted are the geometric means of at least 2 repeats.

T1 sequence (P0AD68 60-588): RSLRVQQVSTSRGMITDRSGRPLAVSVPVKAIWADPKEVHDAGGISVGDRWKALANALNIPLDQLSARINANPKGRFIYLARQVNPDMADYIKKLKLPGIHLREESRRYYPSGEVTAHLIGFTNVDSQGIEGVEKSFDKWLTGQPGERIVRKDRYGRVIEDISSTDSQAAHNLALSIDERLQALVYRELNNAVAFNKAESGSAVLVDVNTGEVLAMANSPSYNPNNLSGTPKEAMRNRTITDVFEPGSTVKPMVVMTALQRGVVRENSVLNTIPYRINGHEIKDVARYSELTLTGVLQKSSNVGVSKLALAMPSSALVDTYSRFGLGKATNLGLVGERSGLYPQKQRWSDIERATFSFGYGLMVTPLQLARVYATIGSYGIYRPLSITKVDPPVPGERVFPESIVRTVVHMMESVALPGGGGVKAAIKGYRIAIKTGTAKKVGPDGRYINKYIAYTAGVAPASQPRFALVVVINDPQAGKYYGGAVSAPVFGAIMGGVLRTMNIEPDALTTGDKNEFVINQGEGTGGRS

SMILES	IC50 [nM]	IC50 (nM) by fluorescence polarisation with Bocillin FL as tracer, Geometric mean (Lower 95% CI of geo. Mean; Upper 95% CI of geo. Mean, n=number of values)
CC(C)C[C@@H]1NC(=O)[C@@H]2CSCCC(=O)N3CN(CN(C3)C(=O)CCSC[C@@H](C(=O)N[C@@H](C)C(N)=O)NC(=O)[C@H](Cc3c[nH]c4ccccc34)NC(=O)[C@H](CC(=O)O)NC(=O)[C@H](CC(N)=O)NC(=O)[C@H](CCCCN)NC(=O)[C@H](C)NC1=O)C(=O)CCSC[C@H](NC(=O)[C@H](C)N)C(=O)N[C@@H](C)C(=O)N[C@@H](C)C(=O)N[C@@H](CC(=O)O)C(=O)N[C@@H](CCCNC(=N)N)C(=O)N[C@@H](CC(C)C)C(=O)N[C@@H](Cc1c[nH]c3ccccc13)C(=O)N2 [Peptide 1] (HELM PEPTIDE1{A.C.A.A.D.R.L.W.C.L.A.K.N.D.W.C.A.[am]}|CHEM1{[O=C(CC[*:1])N1CN(C(=O)CC[*:2])CN(C(=O)CC[*:3])C1]}$PEPTIDE1,CHEM1,2:R3-1:R1|PEPTIDE1,CHEM1,9:R3-1:R2|PEPTIDE1,CHEM1,16:R3-1:R3$$$V2.0)	> 100000	–
CC(C)C[C@@H]1NC(=O)[C@H](CCC(=O)O)NC(=O)[C@@H]2CCCN2C(=O)[C@@H]2CCCN2C(=O)[C@H](CC(C)C)NC(=O)CNC(=O)[C@@H]2CCCN2C(=O)[C@H](Cc2ccc(O)cc2)NC(=O)[C@@H](NC(=O)[C@H](C)N)CSCCC(=O)N2CN3CN(C2)C(=O)CCSC[C@H](NC1=O)C(=O)N[C@@H](CO)C(=O)N1CCC[C@H]1C(=O)N[C@@H](CO)C(=O)N[C@@H](Cc1ccccc1)C(=O)N[C@H](C(=O)N[C@@H](C)C(N)=O)CSCCC3=O [Peptide 10] (HELM PEPTIDE1{A.C.Y.P.G.L.P.P.E.L.C.S.P.S.F.C.A.[am]}|CHEM1{[O=C(CC[*:1])N1CN(C(=O)CC[*:2])CN(C(=O)CC[*:3])C1]}$PEPTIDE1,CHEM1,2:R3-1:R1|PEPTIDE1,CHEM1,11:R3-1:R2|PEPTIDE1,CHEM1,16:R3-1:R3$$$V2.0)	> 100000	–
CC(C)C[C@@H]1NC(=O)[C@H](C(C)C)NC(=O)[C@H](C(C)C)NC(=O)[C@@H]2CCCN2C(=O)[C@H](CCCNC(=N)N)NC(=O)[C@H](C)NC(=O)[C@@H](NC(=O)[C@H](C)N)CSCCC(=O)N2CN3CN(C2)C(=O)CCSC[C@H](NC1=O)C(=O)N[C@@H](Cc1ccc(O)cc1)C(=O)N[C@@H](Cc1c[nH]c2ccccc12)C(=O)N1CCC[C@H]1C(=O)N[C@@H](CCC(=O)O)C(=O)N[C@@H](CC(=O)O)C(=O)N[C@H](C(=O)N[C@@H](C)C(N)=O)CSCCC3=O [Peptide 15] (HELM PEPTIDE1{A.C.A.R.P.V.V.L.C.Y.W.P.E.D.C.A.[am]}|CHEM1{[O=C(CC[*:1])N1CN(C(=O)CC[*:2])CN(C(=O)CC[*:3])C1]}$PEPTIDE1,CHEM1,2:R3-1:R1|PEPTIDE1,CHEM1,9:R3-1:R2|PEPTIDE1,CHEM1,15:R3-1:R3$$$V2.0)	> 100000	–
CC(C)C[C@@H]1NC(=O)[C@@H](NC(=O)[C@H](C)N)CSCCC(=O)N2CN3CN(C2)C(=O)CCSC[C@H](NC(=O)[C@H](CC(N)=O)NC(=O)[C@H](CCC(=O)O)NC1=O)C(=O)N[C@@H](Cc1ccc(O)cc1)C(=O)N[C@@H](Cc1ccc(O)cc1)C(=O)N[C@@H](C(C)C)C(=O)N1CCC[C@H]1C(=O)N[C@@H](Cc1ccc(O)cc1)C(=O)N[C@@H](Cc1ccc(O)cc1)C(=O)NCC(=O)N[C@@H](Cc1ccc(O)cc1)C(=O)N[C@@H](C)C(=O)N[C@H](C(=O)N[C@@H](C)C(N)=O)CSCCC3=O [Peptide 13] (HELM PEPTIDE1{A.C.L.E.N.C.Y.Y.V.P.Y.Y.G.Y.A.C.A.[am]}|CHEM1{[O=C(CC[*:1])N1CN(C(=O)CC[*:2])CN(C(=O)CC[*:3])C1]}$PEPTIDE1,CHEM1,2:R3-1:R1|PEPTIDE1,CHEM1,6:R3-1:R2|PEPTIDE1,CHEM1,16:R3-1:R3$$$V2.0)	3800	showed binding to EcPBP3
CC(C)C[C@@H]1NC(=O)[C@H](Cc2ccccc2)NC(=O)[C@H](CCC(=O)O)NC(=O)[C@H]([C@@H](C)O)NC(=O)[C@H](C)NC(=O)[C@@H](NC(=O)[C@H](C)N)CSCCC(=O)N2CN3CN(C2)C(=O)CCSC[C@H](NC(=O)[C@H](CC(C)C)NC(=O)[C@@H]2CCCN2C(=O)[C@H](Cc2ccc(O)cc2)NC1=O)C(=O)N[C@@H](Cc1c[nH]c2ccccc12)C(=O)N[C@@H](Cc1c[nH]c2ccccc12)C(=O)N[C@@H](CC(=O)O)C(=O)N[C@@H](CC(N)=O)C(=O)N[C@H](C(=O)N[C@@H](C)C(N)=O)CSCCC3=O [Peptide 7] (HELM PEPTIDE1{A.C.A.T.E.F.L.Y.P.L.C.W.W.D.N.C.A.[am]}|CHEM1{[O=C(CC[*:1])N1CN(C(=O)CC[*:2])CN(C(=O)CC[*:3])C1]}$PEPTIDE1,CHEM1,2:R3-1:R1|PEPTIDE1,CHEM1,11:R3-1:R2|PEPTIDE1,CHEM1,16:R3-1:R3$$$V2.0)	> 100000	–
CSCC[C@@H]1NC(=O)[C@H](CC(C)C)NC(=O)[C@@H]2CSCCC(=O)N3CN(CN(C3)C(=O)CCSC[C@@H](C(=O)N[C@@H](C)C(N)=O)NC(=O)[C@H](CC(C)C)NC(=O)[C@H](CCC(=O)O)NC(=O)[C@@H]3CCCN3C(=O)[C@H](Cc3ccccc3)NC1=O)C(=O)CCSC[C@H](NC(=O)[C@H](C)N)C(=O)N[C@@H](CCCNC(=N)N)C(=O)NCC(=O)N[C@@H](CCC(=O)O)C(=O)N[C@@H](CO)C(=O)N[C@@H](CO)C(=O)N[C@@H](Cc1ccccc1)C(=O)N2 [Peptide 4] (HELM PEPTIDE1{A.C.R.G.E.S.S.F.C.L.M.F.P.E.L.C.A.[am]}|CHEM1{[O=C(CC[*:1])N1CN(C(=O)CC[*:2])CN(C(=O)CC[*:3])C1]}$PEPTIDE1,CHEM1,2:R3-1:R1|PEPTIDE1,CHEM1,9:R3-1:R2|PEPTIDE1,CHEM1,16:R3-1:R3$$$V2.0)	> 100000	–
CC(C)C[C@@H]1NC(=O)[C@H](Cc2c[nH]c3ccccc23)NC(=O)[C@H](CCC(=O)O)NC(=O)[C@@H]2CCCN2C(=O)[C@H]([C@@H](C)O)NC(=O)[C@H](CCCCN)NC(=O)[C@H](C)NC(=O)[C@@H](NC(=O)[C@H](C)N)CSCCC(=O)N2CN3CN(C2)C(=O)CCSC[C@@H](C(=O)N[C@@H](C)C(N)=O)NC(=O)[C@H](Cc2ccc(O)cc2)NC(=O)[C@H](C)NC(=O)[C@H](CC(N)=O)NC(=O)[C@H](Cc2ccccc2)NC(=O)CNC(=O)[C@H](CSCCC3=O)NC1=O [Peptide 3] (HELM PEPTIDE1{A.C.A.K.T.P.E.W.L.C.G.F.N.A.Y.C.A.[am]}|CHEM1{[O=C(CC[*:1])N1CN(C(=O)CC[*:2])CN(C(=O)CC[*:3])C1]}$PEPTIDE1,CHEM1,2:R3-1:R1|PEPTIDE1,CHEM1,10:R3-1:R2|PEPTIDE1,CHEM1,16:R3-1:R3$$$V2.0)	> 100000	–
CSCC[C@@H]1NC(=O)[C@H](CC(N)=O)NC(=O)[C@H]([C@@H](C)O)NC(=O)[C@H](Cc2ccccc2)NC(=O)[C@H](CCC(=O)O)NC(=O)[C@H](CC(C)C)NC(=O)[C@@H]2CSCCC(=O)N3CN(CN(C3)C(=O)CCSC[C@@H](C(=O)N[C@@H](C)C(N)=O)NC1=O)C(=O)CCSC[C@H](NC(=O)[C@H](C)N)C(=O)N[C@@H](Cc1ccc(O)cc1)C(=O)N[C@@H](CCCCN)C(=O)N[C@@H](Cc1ccc(O)cc1)C(=O)N1CCC[C@H]1C(=O)NCC(=O)N[C@@H](CC(C)C)C(=O)N2 [Peptide 9] (HELM PEPTIDE1{A.C.Y.K.Y.P.G.L.C.L.E.F.T.N.M.C.A.[am]}|CHEM1{[O=C(CC[*:1])N1CN(C(=O)CC[*:2])CN(C(=O)CC[*:3])C1]}$PEPTIDE1,CHEM1,2:R3-1:R1|PEPTIDE1,CHEM1,9:R3-1:R2|PEPTIDE1,CHEM1,16:R3-1:R3$$$V2.0)	> 100000	–
CC(C)C[C@@H]1NC(=O)[C@@H]2CCCN2C(=O)[C@H](Cc2ccc(O)cc2)NC(=O)[C@H](C(C)C)NC(=O)[C@H](C(C)C)NC(=O)[C@H](CCC(=O)O)NC(=O)[C@@H](NC(=O)[C@H](C)N)CSCCC(=O)N2CN3CN(C2)C(=O)CCSC[C@H](NC1=O)C(=O)N[C@@H](Cc1ccc(O)cc1)C(=O)N[C@@H](Cc1c[nH]c2ccccc12)C(=O)N[C@@H](CO)C(=O)N[C@@H](CC(=O)O)C(=O)N[C@H](C(=O)N[C@@H](C)C(N)=O)CSCCC3=O [Peptide 8] (HELM PEPTIDE1{A.C.E.V.V.Y.P.L.C.Y.W.S.D.C.A.[am]}|CHEM1{[O=C(CC[*:1])N1CN(C(=O)CC[*:2])CN(C(=O)CC[*:3])C1]}$PEPTIDE1,CHEM1,2:R3-1:R1|PEPTIDE1,CHEM1,9:R3-1:R2|PEPTIDE1,CHEM1,14:R3-1:R3$$$V2.0)	> 100000	–
CC(C)C[C@@H]1NC(=O)CNC(=O)[C@@H]2CCCN2C(=O)[C@H](Cc2ccc(O)cc2)NC(=O)[C@H](C)NC(=O)[C@H](Cc2ccc(O)cc2)NC(=O)[C@@H]2CCCN2C(=O)[C@@H](NC(=O)[C@H](C)N)CSCCC(=O)N2CN3CN(C2)C(=O)CCSC[C@H](NC1=O)C(=O)N[C@@H](CC(C)C)C(=O)N[C@@H](CCC(=O)O)C(=O)N[C@@H](Cc1ccccc1)C(=O)N[C@@H](CCCCN)C(=O)N[C@@H](CO)C(=O)N[C@H](C(=O)N[C@@H](C)C(N)=O)CSCCC3=O [Peptide 11] (HELM PEPTIDE1{A.C.P.Y.A.Y.P.G.L.C.L.E.F.K.S.C.A.[am]}|CHEM1{[O=C(CC[*:1])N1CN(C(=O)CC[*:2])CN(C(=O)CC[*:3])C1]}$PEPTIDE1,CHEM1,2:R3-1:R1|PEPTIDE1,CHEM1,10:R3-1:R2|PEPTIDE1,CHEM1,16:R3-1:R3$$$V2.0)	> 100000	–
